41 molecules from US8822503B2, “2-pyridone compounds” (Taisho Pharmaceutical Co., Ltd, priority 2009, dated 2014) can be followed below.

In the assay the target is T1, human liver GK (Homo sapiens, UniProt P35557).
T1 construct: GST (glutathione S-transferase) (N); made in house; host or cells: E. coli
T1 sequence (P35557 1-466 isoform P35557-2): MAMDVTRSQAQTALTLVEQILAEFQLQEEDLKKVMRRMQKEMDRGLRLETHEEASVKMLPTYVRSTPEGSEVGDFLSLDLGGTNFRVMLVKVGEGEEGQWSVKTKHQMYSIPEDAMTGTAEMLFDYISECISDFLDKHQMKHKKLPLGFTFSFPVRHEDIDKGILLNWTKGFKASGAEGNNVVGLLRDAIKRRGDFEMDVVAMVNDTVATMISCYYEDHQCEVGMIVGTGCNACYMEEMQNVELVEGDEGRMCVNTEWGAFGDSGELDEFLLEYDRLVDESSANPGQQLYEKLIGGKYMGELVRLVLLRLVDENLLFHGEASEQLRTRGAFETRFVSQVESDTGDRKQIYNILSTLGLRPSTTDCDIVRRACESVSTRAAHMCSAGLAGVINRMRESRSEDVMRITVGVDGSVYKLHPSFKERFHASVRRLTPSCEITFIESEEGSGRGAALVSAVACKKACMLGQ
The assay can be described thus: GK activation test. The format is biochemical. Particulars: test compound concentration needed to activate 50% of maximum activation ability; 4 mM 14C-labeled glucose, 2 mM ATP, room temperature, 20 minutes. On the procedure:
The GK activation test for the test compounds was performed by the method of Irwin A. Rose et al. (J. Biol. Chem. 1964 January; 239:12-7) with partial modifications.
The enzyme source used in this assay, human liver GK, was expressed in E. coli as a fusion protein with GST (glutathione S-transferase) added to the amino terminus and was purified using Glutathione Sepharose 4B (Amersham Biosciences).
The test was carried out using flat-bottom 96-well plates (Sumitomo Bakelite Co., Ltd.). A solution of the test compound in dimethyl sulfoxide (DMSO) and DMSO as a control were added to each well of the plates at a final DMSO concentration of 1%. 25 mM Hepes-KOH (pH=7.1), 25 mM KCl, 2 mM MgCl2, 2 mM ATP, 4 mM ^14C-labeled glucose (Muromachi Yakuhin) and 1 mM DTT (dithiothreitol) were further added at the indicated final concentrations, respectively. Finally, human liver GK was added at 0.24 microgram per well and the reaction was started. The reaction was carried out at room temperature.
After 20 minutes, AG1-X4 resin (BioRad) suspended in 25 mM Hepes-KOH (pH=7.1) was added and the reaction product, labeled glucose 6-phosphate, was allowed to bind thereto. The whole volume was transferred to MultiScreen plates (Millipore) and the resin was washed with water. Thereafter, the labeled glucose 6-phosphate binding to the resin was eluted with a 0.5 M NaCl solution. The labeling activity of the eluted labeled glucose 6-phosphate was measured as an index of GK activity.
The GK activity maximally activated by the test compound was described as maximum activation ability, and the test compound concentration needed to activate 50% of that ability was described as EC50.

As usually defined, the EC50 is the concentration giving half of the maximal effect. Read a high EC50 as weaker potency. `CSc1ccc([C@]2(c3ccc(C)c(=O)[nH]3)C[C@@H]2C2CCCC2)cc1Cl` (relative stereo) [Example 3-1, trans-6-{-1-[3-Chloro-4-(methylsulfanyl)phenyl]-2-cyclopentylcyclopropyl}-3-methylpyridin-2(1H)-one] showed an EC50 of 0.5 to 3 µM. Then `Cc1ccc([C@@]2(c3ccc(S(C)(=O)=O)c(Cl)c3)C[C@@H]2C2CCCC2)[nH]c1=O` (relative stereo) [Example 3-2, trans-6-{1-[3-Chloro-4-(methylsulfonyl)phenyl]-2-cyclopentylcyclopropyl}-3-methylpyridin-2(1H)-one], with 0.5 to 3 µM; and `CSc1ccc([C@]2(c3ccc(C)c(=O)[nH]3)C[C@@H]2C2CCCC2)cc1` (relative stereo) [Example 3-3, trans-6-{2-Cyclopentyl-1-[4-(methylsulfanyl)phenyl]cyclopropyl}-3-methylpyridin-2(1H)-one], with 0.5 to 3 µM; and `Cc1ccc([C@@]2(c3ccc(S(C)(=O)=O)cc3)C[C@@H]2C2CCCC2)[nH]c1=O` (relative stereo) [Example 3-4, trans-6-{2-Cyclopentyl-1-[4-(methylsulfonyl)phenyl]cyclopropyl}-3-methylpyridin-2(1H)-one], with 3 to 10 µM. Then `CC(C)(C)c1ccc(C(C[C@H]2CCC(=O)N2)c2ccc(Cl)c(=O)[nH]2)cc1` (single isomer, unassigned) [Example 4-69], with 3 to 10 µM; and `CC(C)(C)c1ccc(C(C[C@H]2CCC(=O)N2)c2ccc(Cl)c(=O)[nH]2)cc1` (single isomer, unassigned) [Example 4-70], with 0.5 to 3 µM; and `CC(C)(C)c1ccc(C(C[C@@H]2CCC(=O)N2)c2ccc(Cl)c(=O)[nH]2)cc1` (single isomer, unassigned) [Example 4-76], with 3 to 10 µM. As for `CC(C)(C)c1ccc(C(C[C@@H]2CCC(=O)N2)c2ccc(Cl)c(=O)[nH]2)cc1` (single isomer, unassigned) [Example 4-77], the figure is 3 to 10 µM; as for `CC(C)c1ccc(C(C[C@H]2CCC(=O)N2)c2ccc(Cl)c(=O)[nH]2)cc1` (single isomer, unassigned) [Example 4-85], 0.5 to 3 µM. In turn, `CC(C)c1ccc(C(C[C@H]2CCC(=O)N2)c2ccc(Cl)c(=O)[nH]2)cc1Cl` (single isomer, unassigned) [Example 4-86] had an EC50 of 0.01 to 0.5 µM. On to `CCOc1ccc(C(C[C@H]2CCC(=O)N2)c2ccc(C3CC3)c(=O)[nH]2)cc1Cl` (single isomer, unassigned) [Example 4-87], for which the EC50 lay in the range of 0.01 to 0.5 µM. As to `CC(C)(C)c1ccc(C(C[C@H]2CCN(C(=O)C3CC3)C2)c2ccc(Cl)c(=O)[nH]2)cc1` (single isomer, unassigned) [Example 4-96], the EC50 was in the range of 0.01 to 0.5 µM. Then `CC(C)(C)c1ccc(C(C[C@H]2CCN(C(=O)C3CC3)C2)c2ccc(Cl)c(=O)[nH]2)cc1` (single isomer, unassigned) [Example 4-97], with 3 to 10 µM; and `O=C1CC[C@H](CC(c2ccc3c(c2)CCO3)c2ccc(C3CC3)c(=O)[nH]2)N1` (single isomer, unassigned) [Example 4-209], with 0.5 to 3 µM; and `O=C1CC[C@H](CC(c2ccc(F)c(Cl)c2)c2ccc(C3CC3)c(=O)[nH]2)N1` (single isomer, unassigned) [Example 4-211], with 0.5 to 3 µM. Then `Cc1cc(C(C[C@H]2CCC(=O)N2)c2ccc(C3CC3)c(=O)[nH]2)ccc1Cl` (single isomer, unassigned) [Example 4-213], with 0.5 to 3 µM; and `Cc1cc(C(C[C@H]2CCC(=O)N2)c2ccc(C3CC3)c(=O)[nH]2)ccc1Cl` (single isomer, unassigned) [Example 4-214], with 3 to 10 µM; and `Cc1ccc(C(C[C@H]2CCC(=O)N2)c2ccc(C3CC3)c(=O)[nH]2)cc1Cl` (single isomer, unassigned) [Example 4-215], with 0.01 to 0.5 µM. As for `Cc1ccc(C(C[C@H]2CCC(=O)N2)c2ccc(C3CC3)c(=O)[nH]2)cc1Cl` (single isomer, unassigned) [Example 4-216], the figure is 3 to 10 µM; as for `O=C1CC[C@H](CC(c2ccc(Cl)c(F)c2)c2ccc(C3CC3)c(=O)[nH]2)N1` (single isomer, unassigned) [Example 4-217], 0.5 to 3 µM; as for `O=C1CC[C@H](CC(c2ccc(C(F)(F)F)c(F)c2)c2ccc(C3CC3)c(=O)[nH]2)N1` (single isomer, unassigned) [Example 4-219], 0.5 to 3 µM. `O=C1CC[C@H](CC(c2ccc(Cl)c(C(F)(F)F)c2)c2ccc(C3CC3)c(=O)[nH]2)N1` (single isomer, unassigned) [Example 4-221] registered an EC50 of 0.5 to 3 µM. Molecule `O=C1CC[C@H](CC(c2ccc(Cl)c(C(F)(F)F)c2)c2ccc(C3CC3)c(=O)[nH]2)N1` (single isomer, unassigned) [Example 4-222] had an EC50 of 3 to 10 µM.

`Cc1cc(C(C[C@H]2CCC(=O)N2)c2ccc(C3CC3)c(=O)[nH]2)ccc1F` (single isomer, unassigned) [Example 4-223]: the EC50 is 0.5 to 3 µM. As for `Cc1cc(C(C[C@H]2CCC(=O)N2)c2ccc(C3CC3)c(=O)[nH]2)ccc1F` (single isomer, unassigned) [Example 4-224], the figure is 3 to 10 µM.

The molecule `O=C1CC[C@H](CC(c2ccc(C(F)F)c(Cl)c2)c2ccc(C3CC3)c(=O)[nH]2)N1` (single isomer, unassigned) [Example 4-225] yielded an EC50 of 0.01 to 0.5 µM. As for `O=C1CC[C@H](CC(c2ccc(C(F)F)c(Cl)c2)c2ccc(C3CC3)c(=O)[nH]2)N1` (single isomer, unassigned) [Example 4-226], the figure is 3 to 10 µM; as for `COc1cc(C(C[C@H]2CCC(=O)N2)c2ccc(C3CC3)c(=O)[nH]2)ccc1Cl` (single isomer, unassigned) [Example 4-227], 0.5 to 3 µM; as for `O=C1CC[C@H](CC(c2ccc(OC(F)F)cc2)c2ccc(C3CC3)c(=O)[nH]2)N1` (single isomer, unassigned) [Example 4-229], 0.5 to 3 µM. Then `O=C1CC[C@H](CC(c2ccc(OC(F)F)cc2)c2ccc(C3CC3)c(=O)[nH]2)N1` (single isomer, unassigned) [Example 4-230], with 3 to 10 µM; and `Cc1cc(C(C[C@H]2CCC(=O)N2)c2ccc(C3CC3)c(=O)[nH]2)ccc1C(F)F` (single isomer, unassigned) [Example 4-231], with 0.01 to 0.5 µM. Take `Cc1cc(C(C[C@H]2CCC(=O)N2)c2ccc(C3CC3)c(=O)[nH]2)ccc1C(F)F` (single isomer, unassigned) [Example 4-232]: the EC50 was in the range of 3 to 10 µM.

The molecule `O=C1CC[C@H](CC(c2ccc(C(F)F)c(F)c2)c2ccc(C3CC3)c(=O)[nH]2)N1` (single isomer, unassigned) [Example 4-233] showed an EC50 of 0.5 to 3 µM. `O=C1CC[C@H](CC(c2ccc(C(F)F)c(F)c2)c2ccc(C3CC3)c(=O)[nH]2)N1` (single isomer, unassigned) [Example 4-234] registered an EC50 of 3 to 10 µM. `CCOc1ccc(C(C[C@H]2CCC(=O)N2)c2ccc(Cl)c(=O)[nH]2)cc1` (single isomer, unassigned) [Example 4-235] gave an EC50 of 3 to 10 µM.

As to `CCOc1ccc(C(C[C@H]2CCC(=O)N2)c2ccc(Cl)c(=O)[nH]2)cc1C(F)(F)F` (single isomer, unassigned) [Example 4-237], the EC50 was in the range of 0.5 to 3 µM. As for `CCOc1ccc(C(C[C@H]2CCC(=O)N2)c2ccc(Cl)c(=O)[nH]2)cc1C` (single isomer, unassigned) [Example 4-239], the figure is 0.5 to 3 µM.

Regarding `CCOc1ccc(C(C[C@H]2CCC(=O)N2)c2ccc(Cl)c(=O)[nH]2)cc1C` (single isomer, unassigned) [Example 4-240], the EC50 was in the range of 3 to 10 µM.

As to `CCCc1ccc(C(C[C@H]2CCC(=O)N2)c2ccc(C(F)(F)F)cc2)[nH]c1=O` (single isomer, unassigned) [Example 4-242], the EC50 was in the range of 0.5 to 3 µM.

In turn, `CCCc1ccc(C(C[C@H]2CCC(=O)N2)c2ccc(C(F)(F)F)cc2)[nH]c1=O` (single isomer, unassigned) [Example 4-243] registered an EC50 of 3 to 10 µM. As for `COc1ccc(C(C[C@H]2CCC(=O)N2)c2ccc(C(C)(C)C)cc2)[nH]c1=O` (single isomer, unassigned) [Example 4-244], the figure is 0.5 to 3 µM.
